Data taken from BigSolDB 2.1.

NC(=O)C[C@H](NC(=O)OCc1ccccc1)C(=O)O
solubility (mole fraction)
Conditions	283.15 K	288.15 K	293.15 K	298.15 K	303.15 K	308.15 K	313.15 K	318.15 K	323.15 K
in 1,4-dioxane	–	0.00212	0.00241	0.00271	0.00317	0.00358	0.00419	0.0049	0.0057
in 2-butanone	0.000329	0.000433	0.000544	0.000652	0.000745	0.00086	0.001	0.00112	0.00128
in acetone	0.000747	0.000777	0.000832	0.000971	0.00112	0.00136	0.00161	0.00194	0.00262
in acetonitrile	7.48e-05	0.000149	0.000221	0.000305	0.000395	0.000498	0.000599	0.00069	0.000775
in ethanol	0.000263	0.000463	0.000753	0.00114	0.00161	0.00213	0.00265	0.00311	0.00347
in isobutanol	4.91e-05	6.83e-05	9.5e-05	0.000157	0.000269	0.000403	0.000581	0.000831	0.00107
in isopropanol	8.58e-05	0.000238	0.000431	0.000625	0.000834	0.00105	0.00127	0.00153	0.00177
in methanol	0.00174	0.00188	0.00233	0.00274	0.00344	0.00413	0.00524	0.00647	0.00801
in n-butanol	0.00023	0.000293	0.000361	0.000476	0.000644	0.000846	0.0011	0.00135	0.00171
in n-pentanol	0.000182	0.000221	0.00027	0.000325	0.000415	0.000535	0.000652	0.000829	0.00104
in n-propanol	0.000285	0.000339	0.000439	0.000576	0.000737	0.000887	0.00116	0.00142	0.00175
in water	2.14e-05	2.75e-05	4.02e-05	5.55e-05	7.33e-05	9.44e-05	0.000121	0.000152	0.000198
